Test results from patent US20250042961A1, “P53 PEPTIDOMIMETIC MACROCYCLES” (MERCK SHARP & DOHME LLC, priority 2021, published 2025).
Read-outs that look alike come from different tables or passages of the source. *1 amine or outer side, *2 acyl side, *3 side chain or, on linkers, in order; H or OH if unused. Where a SMILES comes first, the peptide text is derived from it. Bridges are numbered along the chain shown (N, C = ends). [ ]: non-standard residue; d: D form. ξ: configuration not given here. ξαMeNle(6-ylidene) = CC(CCCC=[*:3])(N[*:1])C(=O)[*:2]; dPhe(4-CF3) = N[C@H](Cc1ccc(C(F)(F)F)cc1)C(=O)O; dTrp(6-F) = N[C@H](Cc1c[nH]c2cc(F)ccc12)C(=O)O

What was measured:
MDM2 (1-125) = molecular target: T1, MDM2 (1-125) (Homo sapiens, UniProt Q00987); experiment: Competitive fluorescence anisotropy assay (FP Kd MDM2); type: binding
T1 construct: GST (N); His6 (N); TEV cleavage site ENLYFQG (N); made in house; host or cells: Escherichia coli BL21 (DE3) Rosetta T1R
From the text: For use in the peptide binding assay, a human MDM2 1-125 sequence was cloned into a pNIC-GST vector. The TEV (tobacco etch virus) cleavage site was changed from ENLYFQS (SEQ ID NO: 13) to ENLYFQG (SEQ ID NO: 14) to give a fusion protein with the following sequence:
[P] is the protein concentration (MDM2), [L] is the labeled peptide concentration, r is the anisotropy measured, r0 is the anisotropy of the free peptide, rb is the anisotropy of the MDM2-FAM-labeled peptide complex, Kd is the dissociation constant, [L]t is the total FAM labeled peptide concentration, and [P]t is the total MDM2 concentration. […] These values were then used to determine apparent Kd values of the respective competing ligands in subsequent competition assays in fluorescence anisotropy experiments. MDM2 and MDM4 competition experiments were performed with their respective concentrations held constant at 250 nM and 75 nM, in the presence of 50 nM of FAM-labeled 12/1. The competing molecules were then titrated against the complex of the FAM-labeled peptide and protein. Apparent Kd values were determined by fitting the experimental data to the equations shown below:
[L]st and [L]t denote labeled ligand and total unlabeled ligand input concentrations, respectively. Kd2 is the dissociation constant of the interaction between the unlabeled ligand and the protein.
In all competition experiments, it is assumed that [P]t>[L]st, otherwise considerable amounts of free labeled ligand would always be present and would interfere with measurements. Kd1 is the apparent Kd for the labeled peptide used and has been experimentally determined as described in the previous paragraph. The FAM-labeled peptide was dissolved in dimethyl sulfoxide (DMSO) at 1 mM and diluted into experimental buffer. Readings were carried out with an Envision Multilabel Reader (PerkinElmer). Experiments were carried out in PBS (2.7 mM KCl, 137 mM NaCl, 10 mM Na2HPO4 and 2 mM KH2PO4 (pH 7.4)) and 0.1% Tween-20 buffer. All titrations were carried out in triplicate. Curve-fitting was carried out using Prism 4.0 (GraphPad®). […] Negative control titrations of the ligands under investigation were also carried out with the fluorescently labeled peptide (in the absence of MDM2) to ensure no interactions were occurring between the ligands and the FAM-labeled peptide. […] Measurements were taken a minimum of three times (biological replicates) and values are reported as geometric means of the replicates.

[1] = tested on: p53 responsive β-lactamase reporter in HCT116 cells; experiment: p53 beta-lactamase reporter gene cellular functional assay; type: cell-based
Procedure: HCT116 cells were stably transfected with a p53 responsive β-lactamase reporter and expanded in McCoy's 5A Medium with 10% fetal bovine serum (FBS), Blasticidin, and Penicillin/Streptomycin and then transferred to 1.5 mL freezing vials and stored under liquid nitrogen in growth media containing 5% DMSO. […] The cells were then seeded into a 384-well plate at a density of 8000 cells per well. […] The final working concentration of DMSO was 0.5%. β-lactamase activity was detected using the ToxBLAzer Dual Screen (Invitrogen), as per the manufacturer's instructions. Measurements were made using the Envision multiplate reader (PerkinElmer). […] Measurements were taken a minimum of three times (biological replicates) and values are reported as geometric means of the replicates.

[2] = tested on: Jump-In T-REx CHO-K1 BLA cells; experiment: Tetracycline beta-lactamase reporter gene cellular assay (counterscreen); type: cell-based
Procedure: This assay was based on Jump-In™ T-REx™ CHO-K1 BLA cells containing a stably integrated β-lactamase under the control of an inducible cytomegalovirus (CMV) promoter. Cells were maintained in Dulbecco's Minimal Eagle Medium (DMEM) with 10% fetal bovine serum (FBS), Blasticidin, and Penicillin/Streptomycin and then transferred to 1.5 mL freezing vials and stored under liquid nitrogen in growth media containing 5% DMSO. […] Cells were seeded into a 384-well plate at a density of 4000 cells per well. […] The final working concentration of DMSO was 0.5%. β-lactamase activity was detected using the ToxBLAzer Dual Screen (Invitrogen), as per the manufacturer's instructions. Measurements were carried out using the Envision multiplate reader (PerkinElmer). Counterscreen activity was defined as the amount of β-lactamase activity induced by tetracycline. Measurements were taken a minimum of three times (biological replicates) and values are reported as geometric means of the replicates.

[3] = Helicity stated in text (method not given); type: physicochemical; settings: aqueous solution for compound 6

T1 sequence (Q00987 with tags, fused parts or gaps): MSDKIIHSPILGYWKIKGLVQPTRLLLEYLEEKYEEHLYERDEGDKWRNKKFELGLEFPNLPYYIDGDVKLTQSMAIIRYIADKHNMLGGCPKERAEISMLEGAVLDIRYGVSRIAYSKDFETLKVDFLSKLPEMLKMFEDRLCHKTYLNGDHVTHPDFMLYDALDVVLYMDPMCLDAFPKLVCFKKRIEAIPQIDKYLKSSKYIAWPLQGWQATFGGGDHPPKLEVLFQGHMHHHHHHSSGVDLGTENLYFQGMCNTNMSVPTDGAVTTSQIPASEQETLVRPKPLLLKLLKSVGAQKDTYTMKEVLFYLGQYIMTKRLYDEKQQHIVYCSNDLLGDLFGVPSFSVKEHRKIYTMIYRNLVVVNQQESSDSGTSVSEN

## CC(=O)N[C@@H](C(=O)N[C@H](C)C(=O)N[C@H](Cc1c[nH]c2cc(F)ccc12)C(=O)N[C@H](Cc1ccc(O)cc1)C(=O)N[C@H](C)C(=O)NC1(C)CCC/C=C\CCCC(C)(C(=O)N[C@H](CC(C)C)C(=O)N[C@H](CO)C(=O)N[C@H](C)C(=O)N[C@H](Cc2ccccc2)C(=O)N[C@H](C)C(=O)N[C@H](C)C(=O)N[C@H](C)C(=O)N[C@H](C)C(N)=O)NC(=O)[C@@H](CCC(N)=O)NC(=O)[C@@H](CCC(=O)O)NC(=O)[C@@H](Cc2ccc(C(F)(F)F)cc2)NC1=O)[C@H](C)O.N (stereo partly drawn) [Compound 6] (Ac-[dT][dA][dTrp(6-F)][dY][dA][ξαMeNle(6-ylidene)][dPhe(4-CF3)][dE][dQ][ξαMeNle(6-ylidene)][dL][dS][dA][dF][dA][dA][dA][dA]-NH2; staple (Z) 6-10)
MDM2 (1-125)
  Kd: 0.03 µM
[1]; read-out: p53 activity EC50 (0% FBS, 4 h), 0% FBS, 4 h
  EC50: 9.65 µM
[1]; read-out: p53 activity EC50 (10% FBS, 16 h), 10% FBS, 16 h
  EC50: 1.75 µM
[2]; read-out: Counter screen EC50 (0% FBS, 4 h), 0% FBS, 4 h
  EC50: > 50 µM
[2]; read-out: Counter screen EC50 (10% FBS, 16 h), 10% FBS, 16 h
  EC50: > 50 µM
[3]
  helicity: about 65%
physchem
  chromatographic logD: 3.06
Solubility (PBS, pH 7)
  solubility: 146 µM
